Key:
[1] = tested on: tobacco plant cells; experiment: Herbicide resistance in plant cells transformed with site specific mutant sugarbeet ALS gene; format: cell-based; conditions: 2x10^5 starting plant cells; for Kanamycin^R: kanamycin at 50ppm; for Chlorsulfuron^R: chlorsulforon at 2ppb
Experimental: Introduction of the ALS genes into herbicide sensitive tobacco and sugarbeet, by co-cultivation of the plant cells with A. tumefaciens carrying the ALS genes in the binary vector, was performed as described in EXAMPLE I and EXAMPLE II. Herbicide resistant transformants were obtained with three of the four mutant sugarbeet ALS genes. The frequency of obtaining herbicide resistant transformants was lower than that for kanamycin resistant transformants, and also lower than the frequency of herbicide resistant transformants obtained when the tobacco SURB-Hra gene was used. […] This may reflect either insufficient nucleotide regulatory sequences upstream or downstream of the mutant sugarbeet ALS genes in the DNA fragments used or poor utilization of sugarbeet nucleotide regulatory sequences in tobacco or both. […]
Gene introductions were done by standard co-cultivation method. […] Selection was with chlorsulforon at 2ppb or kanamycin at 50ppm.

[2] = tested on: alfalfa callus; experiment: Resistant growth of transformed alfalfa callus and tissue; format: cell-based, Medicago sativa cv. Rangelander
Experimental: These explants were dipped into a log phase Agrobacterium culture prepared as described in EXAMPLE I, transferred to fresh co-cultivation plates, and cultured at 24°C with 16 hr. days for 3 days.
The bacteria were killed by washing the explants for 3 hrs. with gentle agitation in washing media, and cultured on fresh selection plates.
The explants were subcultured every 3-4 weeks. […] When callus became more organized, (areas are darker green and more compact) it was transferred to fresh maturation media.

[3] = tested on: Sensitive N. tabacum Cells; experiment: Co-cultivation of N. tabacum protoplasts with A. tumefaciens, colony formation on selective media; format: cell-based, Nicotiana tabacum var. Wisconsin 38; conditions: for Number of Colony Forming Units derived from 10^5 Protoplast Equivalents One Month after Co-cultivation: Table 7
Experimental: Sterile tobacco (Nicotiana tabacum var. Wisconsin 38) plants were cultured from 1 cm apical or auxillary explants on OMS Medium in Magenta Boxes under a cycle of a 16 hour light period (6,000-8,000 lux) followed by an 8 hour dark period. When the plants were 5-7 weeks old, fully expanded leaves (3-6 leaves down from the apex) were removed, and two leaves each were placed, top surface down, on 20 mL of protoplast isolation medium in a 100 x 25 mm petri dish. The leaves were then submerged and finely divided with a sharp surgical blade. The midrib was held and the cuts were made outward from it towards the leaf margin at approximately 2 mm intervals. The petri dishes were then sealed with parafilm and the macerated tissue incubated overnight (14-17 hours) in darkness at 27-29°C with gentle gyrotory agitation (20-25 rpm).
The glass tubing was placed in a Babcock bottle, and the cheesecloth was wetted with K3/S(1) Medium. The digested leaf tissue from two petri dishes was carefully poured into the funnel. The cheesecloth was rinsed and expressed into the bottle. The loaded bottles were topped with K3/S(1) Medium, covered with foil and centrifuged at approximately 100 x g for 10 minutes. The floating protoplasts (1-2 mL) were collected with a 1 mL serological pipette and placed in 20 mL of K3/S(1) Medium in another Babcock bottle. After resuspending the protoplasts by gently swirling, the Babcock bottles were topped and centrifuged as before. The floating protoplasts (1-2 mL) were collected as described above and placed in 30 mL of K3/G(1) Medium. The protoplasts were counted in a hemacytometer, and the volume was adjusted to give 1 x 10^+5 protoplasts/mL. 5 mL aliquots of the protoplasts were plated in petri dishes [100 x 20 mm tissue-culture petri dishes (Corning); these dishes were used in all subsequent protoplast manipulations] and cultured in darkness.
When the optical density (at 550 nm) of the A. tumefaciens cultures was 0.6 (log phase culture), approximately 6 hours after dilution, the bacteria were added to plant cells at a multiplicity of approximately 50 bacteria/plant cell (an optical density of 1.0 at 550 nm = 1.4 x 10^9 bacteria). The bacteria and plant cell mixture was co-cultivated for 66 hours at 24°C in low light (approximately 500 lux). Non-transformed protoplast controls were incubated similarly, but without agrobacteria. The following protocol is carried out for each co-cultivation (transformed cells with different agrobacteria, as well as non-transformed cells).
Co-cultivation was terminated by adding 20 mL of a 1:1 mixture of K3/G(2) Medium:C Medium supplemented with 500 mg/liter of cefotaxime (to select against the agrobacteria) to 5 mL of the co-cultivation mixture. The co-cultivated cells were gently and thoroughly resuspended in the new medium by mixing with a 5 or 10 mL serological pipette. The cell density was 2 x 10^4 protoplast equivalents/mL (protoplast equivalents = initial protoplasts, assuming 100% recovery and cell survival) and the osmoticum was 0.35 M. Three 5 mL aliquots of each culture were dispensed into fresh petri dishes.
From this juncture until the cells were embedded in solid medium, the cells were cultured in low light (500-1500 lux) without motion and were aseptically transferred to different media. […] For these transfers, the contents of each plate were collected with a 5 mL serological pipette, placed in separate 15 mL polystyrene conical centrifuge tubes and centrifuged at approximately 50 x g for 5-10 minutes. The supernatant fluid was removed with a pipette without disrupting the loose pellet. Pellets of co-cultivated cells from each plate were then gently resuspended in the appropriate fresh medium.
Each of these cultures was returned to the petri dishes from which they were taken; in this way not all cells needed to be pelleted to effect a medium exchange with minimal cell loss.

[4] = tested on: melon callus; experiment: Kanamycin selection of melon cotyledon explants; format: cell-based, Cucumis melo cv. Amarillo Oro; conditions: kanamycin at 100µm/l
[5] = tested on: ALS; experiment: ALS assay, wild type Brassica napus; format: biochemical
Experimental: Keep on ice. • 2. […] 16K rpm, 4°C. • 4. […] Incubate on ice for 30 minutes. • 6. […] Decant supernatant. • 7. Resuspend pellet in 1 ml cold column buffer. • 8. […] Let this run through column. • 9. Elute proteins with 2X volume of extract loaded. […] Incubate reaction for 1 hour, 30°C. • 12. […] Spin in microfuge 5 minutes. • 13. […] Read at OD 530.

[6] = Gene Origin Sugarbeet, ala(122)-pro
[7] = Gene Origin Sugarbeet, pro(197)-ala/trp(591)-leu
[8] = Gene Origin Sugarbeet, pro(197)-ala
[9] = Gene Origin Sugarbeet, trp(591)-leu
[10] = Gene Origin Tobacco, pro(197)-ala/trp(591)-leu

NC[C@H]1O[C@H](O[C@H]2[C@H](O)[C@@H](O[C@H]3O[C@H](CO)[C@@H](O)[C@H](N)[C@H]3O)[C@H](N)C[C@@H]2N)[C@H](O)[C@@H](O)[C@@H]1O [Kanamycin]
Kanamycin^R [1, 6]: 415
Kanamycin^R [1, 7]: 1362
Kanamycin^R [1, 8]: 1073
Kanamycin^R [1, 9]: 1080
Kanamycin^R [1, 10]: 1083
explants that developed callus resistant to kanamycin ([2]; kanamycin at 100mg/L): Less than 1%
Number of colony forming units derived from 10^5 protoplast equivalents one month after co-cultivation ([3]; Table 4, N.t. (non-cocultured control plant cells), Kanamycin 50 µg/mL): 0
Number of colony forming units derived from 10^5 protoplast equivalents one month after co-cultivation ([3]; Table 4, N.t./P145 (pAGS145, herbicide-sensitive ALS from phage clone 1), Kanamycin 50 µg/mL): 5.9 x 10^2
Number of colony forming units derived from 10^5 protoplast equivalents one month after co-cultivation ([3]; Table 5, N.t. (non-cocultured control plant cells), Kanamycin 50 µg/mL): 0
Number of colony forming units derived from 10^5 protoplast equivalents one month after co-cultivation ([3]; Table 5, N.t./P112 (pAGS112, kanamycin resistance vector), Kanamycin 50 µg/mL): 2.5 x 10^3
Number of colony forming units derived from 10^5 protoplast equivalents one month after co-cultivation ([3]; Table 5, N.t./p152 (pAGS152, phage clone 3), Kanamycin 50 µg/mL): 6.2 x 10^2
Number of Colony Forming Units derived from 10^5 Protoplast Equivalents One Month after Co-cultivation ([3]; N.t. (non co-cultured plant cells), Kanamycin 50 ug/ml): 0
Number of Colony Forming Units derived from 10^5 Protoplast Equivalents One Month after Co-cultivation ([3]; N.t./P312 (pAGS312, C3 subclone, φ31 orientation 1), Kanamycin 50 ug/ml): 65
Number of Colony Forming Units derived from 10^5 Protoplast Equivalents One Month after Co-cultivation ([3]; N.t./p152 (pAGS152, S4/Hra subclone), Kanamycin 50 ug/ml): 88
Number of Colony Forming Units derived from 10^5 Protoplast Equivalents One Month after Co-cultivation ([3]; N.t./p313 (pAGS313, C3 subclone, φ31 orientation 2), Kanamycin 50 ug/ml): 48
Number of Colony Forming Units derived from 10^5 Protoplast Equivalents One Month after Co-cultivation ([3]; N.t./p351 (pAGS351, C3 subclone, φ35), Kanamycin 50 ug/ml): 139
Number of Colony Forming Units derived from 10^5 Protoplast Equivalents One Month after Co-cultivation ([3]; N.t./p381 (pAGS381, C3 subclone, φ38), Kanamycin 50 ug/ml): 87
explants that developed callus resistant to kanamycin [4]: Approximately 70%

COc1nc(C)nc(NC(=O)NS(=O)(=O)c2ccccc2Cl)n1 [chlorsulfuron]
Chlorsulfuron^R [1, 6]: 0
Chlorsulfuron^R [1, 7]: 91
Chlorsulfuron^R [1, 8]: 35
Chlorsulfuron^R [1, 9]: 2
Chlorsulfuron^R [1, 10]: 698
resistance of kanamycin resistant sectors ([2]; chlorsulfuron at 50 ppb): resistant
chlorsulfuron concentration at which transformant tissue was able to grow ([2]; one transformant): 1000 ppb
chlorsulfuron concentration at which transformant tissue was able to grow ([2]; the other two transformants): 5000 ppb
chlorsulfuron resistance conferred in transformed tobacco calluses ([3]; 6.3 kb DNA fragment (SURA-C3)): 2 ppb
Number of colony forming units derived from 10^5 protoplast equivalents one month after co-cultivation ([3]; Table 4, N.t. (non-cocultured control plant cells), Chlorsulfuron 2 ng/mL): 0
Number of colony forming units derived from 10^5 protoplast equivalents one month after co-cultivation ([3]; Table 4, N.t./P145 (pAGS145, herbicide-sensitive ALS from phage clone 1), Chlorsulfuron 2 ng/mL): 0
Number of colony forming units derived from 10^5 protoplast equivalents one month after co-cultivation ([3]; Table 5, N.t. (non-cocultured control plant cells), Chlorsulfuron 2 ng/mL): 0
Number of colony forming units derived from 10^5 protoplast equivalents one month after co-cultivation ([3]; Table 5, N.t./P112 (pAGS112, kanamycin resistance vector), Chlorsulfuron 2 ng/mL): 0
Number of colony forming units derived from 10^5 protoplast equivalents one month after co-cultivation ([3]; Table 5, N.t./p152 (pAGS152, phage clone 3), Chlorsulfuron 2 ng/mL): 6.5 x 10^2
Number of Colony Forming Units derived from 10^5 Protoplast Equivalents One Month after Co-cultivation ([3]; N.t. (non co-cultured plant cells), Chlorsulfuron 2 ng/ml): 0
Number of Colony Forming Units derived from 10^5 Protoplast Equivalents One Month after Co-cultivation ([3]; N.t./P312 (pAGS312, C3 subclone, φ31 orientation 1), Chlorsulfuron 2 ng/ml): 0
Number of Colony Forming Units derived from 10^5 Protoplast Equivalents One Month after Co-cultivation ([3]; N.t./p152 (pAGS152, S4/Hra subclone), Chlorsulfuron 2 ng/ml): 83
Number of Colony Forming Units derived from 10^5 Protoplast Equivalents One Month after Co-cultivation ([3]; N.t./p313 (pAGS313, C3 subclone, φ31 orientation 2), Chlorsulfuron 2 ng/ml): 0
Number of Colony Forming Units derived from 10^5 Protoplast Equivalents One Month after Co-cultivation ([3]; N.t./p351 (pAGS351, C3 subclone, φ35), Chlorsulfuron 2 ng/ml): 32
Number of Colony Forming Units derived from 10^5 Protoplast Equivalents One Month after Co-cultivation ([3]; N.t./p381 (pAGS381, C3 subclone, φ38), Chlorsulfuron 2 ng/ml): 18
Percent Uninhibited ALS Activity ([5]; 1ppb): 86.6%
Percent Uninhibited ALS Activity ([5]; 10ppb): 28.2%
Percent Uninhibited ALS Activity ([5]; 100ppb): 10.1%
Percent Uninhibited ALS Activity ([5]; 1000ppb): 7.6%
